One test relates to interleukin-2 (IL-2). Particulars: single animals. How it is done: The test animals were Balb-c, male, mice, 6 to 8 weeks of age. […] The animals received the following injections:
Each of groups a, b, c and d consisted of 21 animals. The animals were sacrificed daily from 24 h to 7 days after injection. On each day, spleen cells from three of the animals from each control group were pooled together and processed by passing the spleen cells through a 60 mesh stainless steel net in a 5 mm Petri dish containing PBS in order to separate the cells. The cells were collected and centrifuged at 1000 rpm for 10 minutes. The supernatant was discarded and the cells were treated for two minutes with 5 ml of hypotonic buffer (0.15M NH4 Cl, 0.01M KHCO3 dissolved in double distilled water, pH 7.2) to kill the erythrocytes. Thereafter, PBS was added to the cells and the cells were centrifuged for 10 minutes at 1000 rpm. The cells were washed twice with PBS and counted in a hemocytometer using trypan blue to test for viability. The cells were brought to a concentration of 10^7 cells/ml using enriched RPMI containing 10% fetal calf serum (Ser Lab, Sussex, England); 5×10^−5M 2-mercaptoethanol and 3% of d-glutamine (Bio Lab Israel); stock solution 2 mM×1000 nonessential amino acids (Bio Lab, Israel); stock solution×100 and sodium pyruvate (Bio Lab, Israel) stock solution 1 mM×100. An additional three animals from each of the experimental groups were sacrificed and each of the spleens was processed separately using the same procedure.
The cell mixture was divided into two groups:
Supernatants were collected, centrifuged at 1,600 rpm for 10 minutes and stored at 4° C. until used. […] These supernatants were assayed for CSF activity. Prior to incubation of the cells, samples were removed from culture plates and smears of the cultures were made by cytocentrifugation. Slides were stained with May-Grunwald-Giemsa (1:10) solution and evaluated morphologically. A radioactive thymidine assay was used to determine IL-2 activity. Assay for IL-2 Activity • 1. Supernatants were tested for IL-2 activity by the proliferation of the IL-2 dependent cell line CTLD. The IL-2 assay is based on the growth dependence of these cultured T-cell lines on IL-2. T cells harvested from IL-2 dependent culture, washed and placed back in culture in the absence of IL-2 invariably die within 24 hr. By using tritiated thymidine incorporation (^3H-TdR) as an index of cultured T-cell replication, the IL-2 microassay provides a highly reproducible and quantitative indication of the amount of IL-2 activity in the supernatant prepared hereinabove. • 2. To assay a condition medium for IL-2 activity, a sample containing 5 x 10^4 CTLD cells, 10% fetal calf serum and 50% of supernatant in question, all were suspended in a final volume of 1 ml RPMI. Aliquots of 0.2 ml from each sample were placed in four replicate wells of 96 microwell tissue culture plates (NUNC). Conditioned medium was obtained from cultures of Charles River rat spleen cells stimulated with Con A that contained a known amount of IL-2 as a reference in all assays. • 3. The microwells were incubated for 24 hr at 37° C. after which 1 microcurie/well of ^3H-methylthymidine was added. Cells were then further incubated overnight, harvested with a cell harvester, and counted in a beta scintillator.

Test [1] has as its system West Nile virus (WNV). The source says: WNV is a toga virus of the flavivirus group, a positive single stranded RNA virus, which when injected IP to mice usually kills them within 5-8 days as a result of extensive damage to the central nervous system.
Test [2] deals with V-mos transformed NIH-3T3 cells. Put plainly: Colony growth of V-mos transformed NIH-3T3 cells. The class given is cell-based. To be noted: one week; clones counted. How it is done: 5×10^2 cells were plated per 60 mm dish and incubated with different concentrations (0.005-5 μg/ml) of the complex in PBS. A week later, the cells were stained with Gimsa and clones were counted. Similar experiments were conducted using V-mos transformed NIH-3T3 cells, and also using Ph2TeCl2 and Ph3TeCl, with both types of transformed cells.

For test [3], the system named is West Nile virus (WNV). This is another data set of the same source.
Experimental: All cultures were then infected with 10^4 PFU/plate. After 72 h incubation the supernatants were collected and the virus was titrated against Vera cells.

These results are taken from patent publication US8048915B2, “Biologically active complex” (BioMas Ltd., priority 2001, dated 2011).

The structures appear in SMILES notation. Several values for one entry are separate records, joined by “and”; a condition that tells them apart may be missing. Equal entries are not always repeated. Where two headings read alike, the source gives them in different places.

As for `Cl[Te]1(Cl)(Cl)OCCO1.N` [Example 1, equimolar complex of TeO2 and ethylene glycol, NH4Cl salt], the IL-2 activity in the test with interleukin-2 (IL-2) (1 μg IP in 0.2 ml DMSO/PBS, day 1) was 25.919 CPM and 34.326 CPM and 16.718 CPM; in the test on interleukin-2 (IL-2) (1 μg IP in 0.2 ml DMSO/PBS, day 2), 21.398 CPM and 22.050 CPM and 9.338 CPM; in the test on interleukin-2 (IL-2) (1 μg IP in 0.2 ml DMSO/PBS, day 4) it was 31.999 CPM and 14.226 CPM and 17.228 CPM; in the test with interleukin-2 (IL-2) (1 μg IP in 0.2 ml DMSO/PBS, day 6), 41.261 CPM and 80.314 CPM and 42.485 CPM; in the test with interleukin-2 (IL-2) (1 μg IP in 0.2 ml DMSO/PBS, day 7), 66.854 CPM and 58.094 CPM and 51.268 CPM; in the test on interleukin-2 (IL-2) (10 μg IP in 0.2 ml DMSO/PBS, day 1) it was 24.335 CPM and 21.193 CPM and 25.381 CPM. Moreover, the IL-2 activity in the test on interleukin-2 (IL-2) (10 μg IP in 0.2 ml DMSO/PBS, day 2) was 31.901 CPM and 36.390 CPM and 22.066 CPM; in the test on interleukin-2 (IL-2) (10 μg IP in 0.2 ml DMSO/PBS, day 3), 20.316 CPM and 18.288 CPM and 12.126 CPM. Further, the “susceptibility of West Nile virus infections in mice” value in the test with West Nile virus (WNV) [1] (mouse, in vivo) is on record as “susceptible”. For the same molecule, the “# Alive/Total” value in the test with West Nile virus (WNV) [1] (mouse, in vivo, ip) is given as 3/5. In the test on West Nile virus (WNV) [1] (second experiment, 10^3 IPLD50 virus + complex), the “fate of the three survivors after day 8” value was “Two out of the remaining three survived an additional 8 days, whereas the third remained alive without any manifestations of clinical symptoms”. The inhibition of growth entry in test [2] was “none of the complex, Ph2TeCl2 or Ph3TeCl inhibited the growth”. The “reduction in virus yield” value in the test on West Nile virus (WNV) [3] is “ten”. Further, in the test with West Nile virus (WNV) [3], the “reduction of virus yield” value turned out to be 40 fold.
